Assay results published in patent US12522583B2, “Benzimidazole derivatives and aza-benzimidazole derivatives as Janus kinase 2 inhibitors and uses thereof” (Dana-Farber Cancer Institute, Inc., priority 2018, dated 2026).

Assays:
Assay in all cases: KINOMEscan
Type in all cases: binding
[1] = biological target: ABL1(T315I)-phosphorylated (Homo sapiens (Human), UniProt P00519, T315I); conditions: read-out: percent control
Source text: (§1) Example 2. In Vitro Kinase Selectivity Profiling of the Compounds of the Present Disclosure

ALK(C1156Y) = ALK(C1156Y) (Homo sapiens (Human), UniProt Q9UM73, C1156Y); conditions: read-out: percent control
Chain of ALK(C1156Y) (Q9UM73 19-1620 C1156Y): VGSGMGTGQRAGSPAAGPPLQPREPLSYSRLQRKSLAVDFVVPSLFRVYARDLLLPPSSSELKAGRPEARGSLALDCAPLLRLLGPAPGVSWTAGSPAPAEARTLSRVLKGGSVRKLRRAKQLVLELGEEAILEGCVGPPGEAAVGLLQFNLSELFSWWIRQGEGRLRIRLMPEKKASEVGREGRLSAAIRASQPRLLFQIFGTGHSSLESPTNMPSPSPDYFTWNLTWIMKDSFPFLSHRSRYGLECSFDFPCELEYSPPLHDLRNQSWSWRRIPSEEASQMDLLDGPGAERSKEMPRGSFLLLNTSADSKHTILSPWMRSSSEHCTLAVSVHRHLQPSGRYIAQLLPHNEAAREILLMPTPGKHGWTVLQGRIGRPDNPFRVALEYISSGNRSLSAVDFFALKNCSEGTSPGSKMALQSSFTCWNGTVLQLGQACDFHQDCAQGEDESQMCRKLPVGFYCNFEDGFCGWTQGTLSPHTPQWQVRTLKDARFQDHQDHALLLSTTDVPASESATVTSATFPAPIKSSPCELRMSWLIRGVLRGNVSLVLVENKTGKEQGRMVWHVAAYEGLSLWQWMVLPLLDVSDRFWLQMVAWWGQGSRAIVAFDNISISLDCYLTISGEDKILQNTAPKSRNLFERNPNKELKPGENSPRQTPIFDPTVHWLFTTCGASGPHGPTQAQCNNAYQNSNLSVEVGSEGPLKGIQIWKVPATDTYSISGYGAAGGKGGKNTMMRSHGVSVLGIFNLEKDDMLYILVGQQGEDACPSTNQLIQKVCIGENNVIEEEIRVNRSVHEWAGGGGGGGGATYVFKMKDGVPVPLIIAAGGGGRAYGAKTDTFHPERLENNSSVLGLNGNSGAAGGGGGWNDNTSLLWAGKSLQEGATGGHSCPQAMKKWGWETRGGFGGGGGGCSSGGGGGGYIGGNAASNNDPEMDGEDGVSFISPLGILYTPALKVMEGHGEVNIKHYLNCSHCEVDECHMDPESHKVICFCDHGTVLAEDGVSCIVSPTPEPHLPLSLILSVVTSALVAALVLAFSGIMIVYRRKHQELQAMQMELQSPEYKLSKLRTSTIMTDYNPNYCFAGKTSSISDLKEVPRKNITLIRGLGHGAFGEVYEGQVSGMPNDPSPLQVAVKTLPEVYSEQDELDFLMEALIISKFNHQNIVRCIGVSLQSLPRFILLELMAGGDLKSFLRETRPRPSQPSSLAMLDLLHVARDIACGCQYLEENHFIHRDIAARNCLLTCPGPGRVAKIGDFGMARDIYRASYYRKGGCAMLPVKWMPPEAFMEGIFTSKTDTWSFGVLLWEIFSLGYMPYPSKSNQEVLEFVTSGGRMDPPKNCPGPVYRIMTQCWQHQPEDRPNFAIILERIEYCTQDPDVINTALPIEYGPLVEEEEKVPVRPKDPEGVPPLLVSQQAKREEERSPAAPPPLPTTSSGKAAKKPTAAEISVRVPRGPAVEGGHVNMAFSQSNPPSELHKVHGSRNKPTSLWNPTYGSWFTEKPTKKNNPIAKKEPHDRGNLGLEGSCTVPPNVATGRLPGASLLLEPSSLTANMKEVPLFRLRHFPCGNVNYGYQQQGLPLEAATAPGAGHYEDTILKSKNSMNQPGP
Source text: as §1

ARK5 = ARK5 (Homo sapiens (Human), UniProt O60285); conditions: read-out: percent control
Source text: as §1

AXL = AXL (Homo sapiens (Human), UniProt P30530); conditions: read-out: percent control
Source text: as §1

BRSK1 = BRSK1 (Homo sapiens (Human), UniProt Q8TDC3); conditions: read-out: percent control
Source text: as §1

CAMK4 = CAMK4 (Homo sapiens (Human), UniProt Q16566); conditions: read-out: percent control
Source text: as §1

CDK5 = CDK5 (Homo sapiens (Human), UniProt Q00535); conditions: read-out: percent control
Source text: as §1

CLK1 = CLK1 (Homo sapiens (Human), UniProt P49759); conditions: read-out: percent control
Source text: as §1

CSNK1G1 = CSNK1G1 (Homo sapiens (Human), UniProt Q9HCP0); conditions: read-out: percent control
Source text: as §1

CSNK1G3 = CSNK1G3 (Homo sapiens (Human), UniProt Q9Y6M4); conditions: read-out: percent control
Source text: as §1

CSNK2A1 = CSNK2A1 (Homo sapiens (Human), UniProt P68400); conditions: read-out: percent control
Source text: as §1

CSNK2A2 = CSNK2A2 (Homo sapiens (Human), UniProt P19784); conditions: read-out: percent control
Source text: as §1

DRAK1 = DRAK1 (Homo sapiens (Human), UniProt Q9UEE5); conditions: read-out: percent control
Source text: as §1

EPHB1 = EPHB1 (Homo sapiens (Human), UniProt P54762); conditions: read-out: percent control
Source text: as §1

ERBB2 = ERBB2 (Homo sapiens (Human), UniProt P04626); conditions: read-out: percent control
Source text: as §1

FGFR3(G697C) = FGFR3(G697C) (Homo sapiens (Human), UniProt P22607, G697C); conditions: read-out: percent control
Source text: as §1

FGFR4 = FGFR4 (Homo sapiens (Human), UniProt P22455); conditions: read-out: percent control
Source text: as §1

FLT3(ITD) = conditions: 1 μM
Source text: as §1

FLT3(ITD, F691L) = conditions: 1 μM
Source text: as §1

FRK = FRK (Homo sapiens (Human), UniProt P42685); conditions: read-out: percent control
Source text: as §1

HPK1 = HPK1 (Homo sapiens (Human), UniProt Q92918); conditions: read-out: percent control
Source text: as §1

KIT(V559D) = KIT(V559D) (Homo sapiens (Human), UniProt P10721, V559D); conditions: read-out: percent control
Source text: as §1

MAK = MAK (Homo sapiens (Human), UniProt P20794); conditions: read-out: percent control
Chain of MAK (P20794 whole entry): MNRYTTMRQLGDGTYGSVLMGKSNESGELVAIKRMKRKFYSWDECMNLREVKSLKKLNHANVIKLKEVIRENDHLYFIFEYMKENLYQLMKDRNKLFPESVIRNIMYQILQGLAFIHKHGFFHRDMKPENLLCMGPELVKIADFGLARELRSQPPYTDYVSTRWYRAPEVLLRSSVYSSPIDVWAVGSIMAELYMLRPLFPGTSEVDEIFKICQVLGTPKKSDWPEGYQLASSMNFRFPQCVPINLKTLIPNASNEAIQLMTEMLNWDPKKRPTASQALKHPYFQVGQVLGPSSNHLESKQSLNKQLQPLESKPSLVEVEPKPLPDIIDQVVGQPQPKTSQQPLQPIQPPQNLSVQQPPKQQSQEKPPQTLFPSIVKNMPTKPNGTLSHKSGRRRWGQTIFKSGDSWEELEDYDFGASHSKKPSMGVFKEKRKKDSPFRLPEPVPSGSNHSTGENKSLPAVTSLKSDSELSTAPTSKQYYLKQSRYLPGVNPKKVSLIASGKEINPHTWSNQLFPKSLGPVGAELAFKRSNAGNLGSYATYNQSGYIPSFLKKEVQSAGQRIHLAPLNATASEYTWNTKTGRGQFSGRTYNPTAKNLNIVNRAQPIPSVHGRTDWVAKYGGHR
Source text: as §1

MAP3K3 = MAP3K3 (Homo sapiens (Human), UniProt Q99759); conditions: read-out: percent control
Source text: as §1

MARK3 = MARK3 (Homo sapiens (Human), UniProt P27448); conditions: read-out: percent control
Chain of MARK3 (P27448 whole entry): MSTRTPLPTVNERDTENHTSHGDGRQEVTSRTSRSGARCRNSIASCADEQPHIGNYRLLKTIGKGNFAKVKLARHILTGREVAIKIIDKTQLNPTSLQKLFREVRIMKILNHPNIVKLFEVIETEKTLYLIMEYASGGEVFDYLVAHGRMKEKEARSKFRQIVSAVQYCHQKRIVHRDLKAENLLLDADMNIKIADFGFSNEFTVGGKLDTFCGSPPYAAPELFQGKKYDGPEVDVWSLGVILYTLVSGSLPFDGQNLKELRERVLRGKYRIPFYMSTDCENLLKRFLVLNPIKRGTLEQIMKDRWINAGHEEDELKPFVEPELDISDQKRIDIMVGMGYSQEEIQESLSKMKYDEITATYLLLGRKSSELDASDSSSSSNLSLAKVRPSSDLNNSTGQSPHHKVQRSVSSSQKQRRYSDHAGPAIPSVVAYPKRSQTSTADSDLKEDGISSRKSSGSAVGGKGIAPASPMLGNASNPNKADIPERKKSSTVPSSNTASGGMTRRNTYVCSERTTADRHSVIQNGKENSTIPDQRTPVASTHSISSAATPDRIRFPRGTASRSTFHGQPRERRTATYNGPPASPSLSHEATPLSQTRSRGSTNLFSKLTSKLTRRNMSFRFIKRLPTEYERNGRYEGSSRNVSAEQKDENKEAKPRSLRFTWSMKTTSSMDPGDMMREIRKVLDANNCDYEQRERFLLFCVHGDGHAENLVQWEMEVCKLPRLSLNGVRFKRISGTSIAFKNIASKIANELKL
Source text: as §1

MLK3 = MLK3 (Homo sapiens (Human), UniProt Q16584); conditions: read-out: percent control
Chain of MLK3 (Q16584 whole entry): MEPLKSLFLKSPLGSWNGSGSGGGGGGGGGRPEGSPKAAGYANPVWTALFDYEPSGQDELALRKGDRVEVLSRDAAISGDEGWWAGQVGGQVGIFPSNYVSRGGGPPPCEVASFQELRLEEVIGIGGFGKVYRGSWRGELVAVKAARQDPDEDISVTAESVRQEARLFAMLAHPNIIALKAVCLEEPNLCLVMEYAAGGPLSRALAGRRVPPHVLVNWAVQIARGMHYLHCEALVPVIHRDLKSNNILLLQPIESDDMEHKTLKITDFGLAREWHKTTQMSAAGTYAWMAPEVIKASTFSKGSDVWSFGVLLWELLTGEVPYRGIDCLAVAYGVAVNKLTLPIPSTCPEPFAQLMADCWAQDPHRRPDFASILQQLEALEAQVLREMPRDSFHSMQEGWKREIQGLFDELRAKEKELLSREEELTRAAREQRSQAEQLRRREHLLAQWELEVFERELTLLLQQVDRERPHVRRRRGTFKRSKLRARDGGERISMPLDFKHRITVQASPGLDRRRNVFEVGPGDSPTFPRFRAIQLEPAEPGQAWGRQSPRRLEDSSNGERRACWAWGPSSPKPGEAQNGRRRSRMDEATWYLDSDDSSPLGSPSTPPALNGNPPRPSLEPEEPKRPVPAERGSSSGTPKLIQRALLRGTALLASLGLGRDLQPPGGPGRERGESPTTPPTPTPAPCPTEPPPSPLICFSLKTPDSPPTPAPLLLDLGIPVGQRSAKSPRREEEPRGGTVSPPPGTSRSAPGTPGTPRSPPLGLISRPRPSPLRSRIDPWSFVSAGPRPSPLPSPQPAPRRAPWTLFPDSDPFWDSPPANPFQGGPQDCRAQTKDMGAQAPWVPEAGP
Source text: as §1

MYLK = MYLK (Homo sapiens (Human), UniProt Q15746); conditions: read-out: percent control
Source text: as §1

MYLK2 = MYLK2 (Homo sapiens (Human), UniProt Q9H1R3); conditions: read-out: percent control
Chain of MYLK2 (Q9H1R3 whole entry): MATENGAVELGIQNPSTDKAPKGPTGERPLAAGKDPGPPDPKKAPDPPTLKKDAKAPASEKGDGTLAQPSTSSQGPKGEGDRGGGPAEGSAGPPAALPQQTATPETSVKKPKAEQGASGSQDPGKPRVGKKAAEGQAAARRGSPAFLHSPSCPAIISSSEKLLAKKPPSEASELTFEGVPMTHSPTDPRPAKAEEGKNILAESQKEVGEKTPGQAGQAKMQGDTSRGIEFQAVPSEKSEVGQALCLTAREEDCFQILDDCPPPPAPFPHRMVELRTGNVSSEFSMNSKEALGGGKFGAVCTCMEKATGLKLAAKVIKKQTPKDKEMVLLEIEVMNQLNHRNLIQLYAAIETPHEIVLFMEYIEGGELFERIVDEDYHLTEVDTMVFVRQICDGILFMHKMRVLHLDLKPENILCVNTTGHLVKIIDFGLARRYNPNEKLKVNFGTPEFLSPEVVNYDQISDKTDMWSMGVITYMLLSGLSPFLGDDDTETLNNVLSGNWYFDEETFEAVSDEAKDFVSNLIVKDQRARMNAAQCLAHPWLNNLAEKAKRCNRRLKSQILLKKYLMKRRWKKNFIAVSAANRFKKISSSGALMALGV
Source text: as §1

NEK1 = NEK1 (Homo sapiens (Human), UniProt Q96PY6); conditions: read-out: percent control
Source text: as §1

PFTAIRE2 = PFTAIRE2 (Homo sapiens (Human), UniProt Q96Q40); conditions: read-out: percent control
Source text: as §1

PIK3CB = PIK3CB (Homo sapiens (Human), UniProt P42338); conditions: read-out: percent control
Source text: as §1

PIM2 = PIM2 (Homo sapiens (Human), UniProt Q9P1W9); conditions: read-out: percent control
Source text: as §1

PIP5K2C = PIP5K2C (Homo sapiens (Human), UniProt Q8TBX8); conditions: read-out: percent control
Source text: as §1

PRKCI = PRKCI (Homo sapiens (Human), UniProt P41743); conditions: read-out: percent control
Source text: as §1

PRKD3 = PRKD3 (Homo sapiens (Human), UniProt O94806); conditions: read-out: percent control
Source text: as §1

PRKG1 = PRKG1 (Homo sapiens (Human), UniProt Q13976); conditions: read-out: percent control
Source text: as §1

[2] = biological target: RSK2(Kin.Dom.2-C-terminal) (Homo sapiens (Human), UniProt P51812); conditions: read-out: percent control
Source text: as §1

SGK = SGK (Homo sapiens (Human), UniProt O00141); conditions: read-out: percent control
Source text: as §1

STK35 = STK35 (Homo sapiens (Human), UniProt Q8TDR2); conditions: read-out: percent control
Chain of STK35 (Q8TDR2 whole entry): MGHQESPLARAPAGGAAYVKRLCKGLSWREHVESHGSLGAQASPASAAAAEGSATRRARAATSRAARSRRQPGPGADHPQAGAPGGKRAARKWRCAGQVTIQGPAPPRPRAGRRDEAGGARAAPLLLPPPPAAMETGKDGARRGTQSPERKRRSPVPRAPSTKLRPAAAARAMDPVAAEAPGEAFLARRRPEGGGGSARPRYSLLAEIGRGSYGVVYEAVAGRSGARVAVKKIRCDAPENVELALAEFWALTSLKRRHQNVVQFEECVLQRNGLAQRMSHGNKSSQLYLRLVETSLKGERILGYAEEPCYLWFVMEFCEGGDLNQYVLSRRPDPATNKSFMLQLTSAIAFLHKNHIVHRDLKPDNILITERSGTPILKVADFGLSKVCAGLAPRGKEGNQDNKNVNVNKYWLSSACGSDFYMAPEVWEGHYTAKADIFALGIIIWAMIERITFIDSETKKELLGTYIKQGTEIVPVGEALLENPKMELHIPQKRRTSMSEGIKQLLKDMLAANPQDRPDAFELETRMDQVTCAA
Source text: as §1

TESK1 = TESK1 (Homo sapiens (Human), UniProt Q15569); conditions: read-out: percent control
Source text: as §1

[3] = biological target: TYK2(JH2domain-pseudokinase) (Homo sapiens (Human), UniProt P29597); conditions: read-out: percent control
Source text: as §1

In the case of `CCN1CCN(Cc2ccc(Nc3nc4ccc(Oc5ccnc(NC(C)=O)c5)cc4n3C)cc2C(F)(F)F)CC1` [Compound I-2], the remaining binding at 1 µM [1] is reported as 62%, the remaining binding at 1 µM (ALK(C1156Y)) is reported as 96% and the remaining binding at 1 µM (ARK5) is reported as 100%. It also gave a remaining binding at 1 µM (AXL) of 86%, a remaining binding at 1 µM (BRSK1) of 100% and a remaining binding at 1 µM (CAMK4) of 98%. For the same compound, the remaining binding at 1 µM (CDK5) was 97%, the remaining binding at 1 µM (CLK1) was 87% and the remaining binding at 1 µM (CSNK1G1) was 100%. It also gave a remaining binding at 1 µM (CSNK1G3) of 89%, a remaining binding at 1 µM (CSNK2A1) of 66% and a remaining binding at 1 µM (CSNK2A2) of 82%. The remaining binding at 1 µM (DRAK1) was 100%, the remaining binding at 1 µM (EPHB1) was 94% and the remaining binding at 1 µM (ERBB2) was 95%. It also gave a remaining binding at 1 µM (FGFR3(G697C)) of 98%, a remaining binding at 1 µM (FGFR4) of 100% and a percent control (FLT3(ITD)) of 24%. The percent control (FLT3(ITD, F691L)) was 34%, the remaining binding at 1 µM (FRK) was 45% and the remaining binding at 1 µM (HPK1) was 69%. The remaining binding at 1 µM (KIT(V559D)) was 0%, the remaining binding at 1 µM (MAK) was 78% and the remaining binding at 1 µM (MAP3K3) was 16%. It also gave a remaining binding at 1 µM (MARK3) of 87%, a remaining binding at 1 µM (MLK3) of 100% and a remaining binding at 1 µM (MYLK) of 59%. It also gave a remaining binding at 1 µM (MYLK2) of 100%, a remaining binding at 1 µM (NEK1) of 84% and a remaining binding at 1 µM (PFTAIRE2) of 75%. It also gave a remaining binding at 1 µM (PIK3CB) of 100%, a remaining binding at 1 µM (PIM2) of 91% and a remaining binding at 1 µM (PIP5K2C) of 96%. The remaining binding at 1 µM (PRKCI) was 95%, the remaining binding at 1 µM (PRKD3) was 84% and the remaining binding at 1 µM (PRKG1) was 100%. The remaining binding at 1 µM [2] was 98%, the remaining binding at 1 µM (SGK) was 85% and the remaining binding at 1 µM (STK35) was 100%. It also gave a remaining binding at 1 µM (TESK1) of 67% and a remaining binding at 1 µM [3] of 100%.

For `CCN1CCN(Cc2ccc(Nc3nc4ccc(Oc5ccnc(NC(C)=O)c5)c(C)c4n3C)cc2C(F)(F)F)CC1` [Compound I-6, N-(4-(2-(4-((4-ethylpiperazin-1-yl)methyl)-3-(trifluoromethyl)phenylamino)-1,7-dimethyl-1H-benzo[d]imidazol-6-yloxy)pyridin-2-yl)acetamide], the remaining binding at 1 µM [1] was 87%, the remaining binding at 1 µM (ALK(C1156Y)) was 92% and the remaining binding at 1 µM (ARK5) was 100%. For the same compound, the remaining binding at 1 µM (AXL) was 61%, the remaining binding at 1 µM (BRSK1) was 100% and the remaining binding at 1 µM (CAMK4) was 100%. For the same compound, the remaining binding at 1 µM (CDK5) was 90%, the remaining binding at 1 µM (CLK1) was 94% and the remaining binding at 1 µM (CSNK1G1) was 100%. The remaining binding at 1 µM (CSNK1G3) was 94%, the remaining binding at 1 µM (CSNK2A1) was 91% and the remaining binding at 1 µM (CSNK2A2) was 100%. For the same compound, the remaining binding at 1 µM (DRAK1) was 99%, the remaining binding at 1 µM (EPHB1) was 95% and the remaining binding at 1 µM (ERBB2) was 100%. The remaining binding at 1 µM (FGFR3(G697C)) was 66%, the remaining binding at 1 µM (FGFR4) was 100% and the percent control (FLT3(ITD)) was 11%. For the same compound, the percent control (FLT3(ITD, F691L)) was 46%, the remaining binding at 1 µM (FRK) was 11% and the remaining binding at 1 µM (HPK1) was 56%. The remaining binding at 1 µM (KIT(V559D)) was 0.15%, the remaining binding at 1 µM (MAK) was 86% and the remaining binding at 1 µM (MAP3K3) was 0.95%. The remaining binding at 1 µM (MARK3) was 86%, the remaining binding at 1 µM (MLK3) was 95% and the remaining binding at 1 µM (MYLK) was 91%. For the same compound, the remaining binding at 1 µM (MYLK2) was 92%, the remaining binding at 1 µM (NEK1) was 79% and the remaining binding at 1 µM (PFTAIRE2) was 100%. The remaining binding at 1 µM (PIK3CB) was 96%, the remaining binding at 1 µM (PIM2) was 92% and the remaining binding at 1 µM (PIP5K2C) was 93%. For the same compound, the remaining binding at 1 µM (PRKCI) was 71%, the remaining binding at 1 µM (PRKD3) was 92% and the remaining binding at 1 µM (PRKG1) was 98%. The remaining binding at 1 µM [2] was 99%, the remaining binding at 1 µM (SGK) was 96% and the remaining binding at 1 µM (STK35) was 100%. It also gave a remaining binding at 1 µM (TESK1) of 62% and a remaining binding at 1 µM [3] of 76%.
